Columns and labels:
Assay type in all cases: in vivo
[1] = tested on: barnyardgrass (Echinochloa crus-galli); assay: Test A preemergence; conditions: for Plant response rating, Barnyardgrass: 125 g ai/ha; for Barnyardgrass plant response rating (0 to 100 scale, 0 is no effect, 100 is complete control): 500 g ai/ha, visual injury approx. 10 d
In short: (§1)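 Ratings of 0 (no effect) to 100 (complete control) come from visual comparison with untreated controls roughly 10 d after treatment. Test chemicals, formulated in a non-phytotoxic solvent mixture with surfactant, were applied either as a preemergence directed soil spray on seeded soil or postemergence to one- to two-leaf plants 2 to 10 cm tall.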

Kochia (Kochia scoparia) [2] = assay: Test A preemergence; conditions: for Plant response rating, Kochia: 125 g ai/ha; for Kochia plant response rating (0 to 100 scale, 0 is no effect, 100 is complete control): 500 g ai/ha, visual injury approx. 10 d
In short: as §1

[3] = tested on: ragweed (common ragweed, Ambrosia elatior); assay: Test A preemergence; conditions: for Plant response rating, Ragweed: 125 g ai/ha; for Ragweed plant response rating (0 to 100 scale, 0 is no effect, 100 is complete control): 500 g ai/ha, visual injury approx. 10 d
In short: as §1

[4] = tested on: giant foxtail (Setaria faberii); assay: Test A preemergence; conditions: for Plant response rating, Foxtail, Giant: 125 g ai/ha; for Foxtail, Giant plant response rating (0 to 100 scale, 0 is no effect, 100 is complete control): 500 g ai/ha, visual injury approx. 10 d
In short: as §1

[5] = tested on: ryegrass, Italian (Italian ryegrass, Lolium multiflorum); assay: Test A preemergence; conditions: for Plant response rating, Ryegrass, Italian: 125 g ai/ha; for Ryegrass, Italian plant response rating (0 to 100 scale, 0 is no effect, 100 is complete control): 500 g ai/ha, visual injury approx. 10 d
In short: as §1

[6] = tested on: pigweed (Amaranthus retroflexus); assay: Test A preemergence; conditions: for Plant response rating, Pigweed: 125 g ai/ha; for Pigweed plant response rating (0 to 100 scale, 0 is no effect, 100 is complete control): 500 g ai/ha, visual injury approx. 10 d
[7] = tested on: barnyardgrass (Echinochloa crus-galli); assay: Test A postemergence; conditions: for Barnyardgrass plant response rating: 125 g ai/ha, visual injury rating on 0 to 100 scale (0 no effect, 100 complete control), approx. 10 d; for Plant response rating, Barnyardgrass: 500 g ai/ha
In short: as §1

Kochia (Kochia scoparia) [8] = assay: Test A postemergence; conditions: for Kochia plant response rating: visual injury rating on 0 to 100 scale (0 no effect, 100 complete control), approx. 10 d
In short: as §1

[9] = tested on: Galium (catchweed bedstraw, Galium aparine); assay: Test A postemergence; conditions: for Galium plant response rating: visual injury rating on 0 to 100 scale (0 no effect, 100 complete control), approx. 10 d
In short: as §1

[10] = tested on: ragweed (common ragweed, Ambrosia elatior); assay: Test A postemergence; conditions: for Ragweed plant response rating: visual injury rating on 0 to 100 scale (0 no effect, 100 complete control), approx. 10 d
In short: as §1

[11] = tested on: blackgrass (Alopecurus myosuroides); assay: Test A postemergence; conditions: for Blackgrass plant response rating: 125 g ai/ha, visual injury rating on 0 to 100 scale (0 no effect, 100 complete control), approx. 10 d; for Plant response rating, Blackgrass: 500 g ai/ha
In short: as §1

[12] = tested on: giant foxtail (Setaria faberii); assay: Test A postemergence; conditions: for Foxtail, Giant plant response rating: visual injury rating on 0 to 100 scale (0 no effect, 100 complete control), approx. 10 d
In short: as §1

corn (Zea mays) = assay: Test A postemergence; conditions: for Corn plant response rating: visual injury rating on 0 to 100 scale (0 no effect, 100 complete control), approx. 10 d
In short: as §1

[13] = tested on: wheat (Triticum aestivum); assay: Test A postemergence; conditions: for Wheat plant response rating: visual injury rating on 0 to 100 scale (0 no effect, 100 complete control), approx. 10 d
In short: as §1

[14] = tested on: ryegrass, Italian (Italian ryegrass, Lolium multiflorum); assay: Test A postemergence; conditions: for Ryegrass, Italian plant response rating: visual injury rating on 0 to 100 scale (0 no effect, 100 complete control), approx. 10 d
In short: as §1

[15] = tested on: pigweed (Amaranthus retroflexus); assay: Test A postemergence; conditions: for Pigweed plant response rating: visual injury rating on 0 to 100 scale (0 no effect, 100 complete control), approx. 10 d
In short: as §1

[16] = tested on: barnyardgrass (Echinochloa crus-galli); assay: Test B flooded paddy test; conditions: Flood, 0 to 100 scale where 0 is no effect and 100 is complete control, 13 to 15 d
In short: (§2)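 Compound goes directly into floodwater once pots are flooded 3 cm above soil, targeting plants at two leaves; the water depth is then held for the test duration. Plants sit 13–15 d in a greenhouse and are rated visually, 100 denoting complete control.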

[17] = tested on: sedge, umbrella (small-flower umbrella sedge, Cyperus difformis); assay: Test B flooded paddy test; conditions: Flood, 0 to 100 scale where 0 is no effect and 100 is complete control, 13 to 15 d
In short: as §2

rice (Oryra sativa) = assay: Test B flooded paddy test; conditions: Flood, 0 to 100 scale where 0 is no effect and 100 is complete control, 13 to 15 d
In short: as §2

[18] = tested on: ducksalad (Heteranthera limosa); assay: Test B flooded paddy test; conditions: Flood, 0 to 100 scale where 0 is no effect and 100 is complete control, 13 to 15 d
In short: as §2

[19] = Preemergence, visual injury after approximately 10 d, 0 to 100 scale where 0 is no effect and 100 is complete control
[20] = Postemergence, 0 to 100 scale where 0 is no effect and 100 is complete control
[21] = 125 g ai/ha, postemergence, visual rating after approx. 10 d, 0 to 100 scale (0 no effect, 100 complete control)
[22] = Postemergence, 500 g ai/ha, 0 to 100 scale where 0 is no effect and 100 is complete control
[23] = preemergence, 0 to 100 scale (0 no effect, 100 complete control)
[24] = postemergence, 0 to 100 scale, 0 no effect, 100 complete control
[25] = 500 g ai/ha, postemergence, 0 to 100 scale, 0 no effect, 100 complete control

O=C1NCC(c2ccc(Oc3ccccc3)cc2)C1C(=O)Nc1ccccc1Cl (racemic) [Compound 538]
0: Plant response rating, Barnyardgrass [1, 19] | Barnyardgrass plant response rating (0 to 100 scale, 0 is no effect, 100 is complete control) ([1]; Preemergence) | Plant response rating, Kochia (Kochia (Kochia scoparia) [2]; [19]) | Kochia plant response rating (0 to 100 scale, 0 is no effect, 100 is complete control) (Kochia (Kochia scoparia) [2]; Preemergence) | Plant response rating, Ragweed [3, 19] | Ragweed plant response rating (0 to 100 scale, 0 is no effect, 100 is complete control) ([3]; Preemergence) | Plant response rating, Foxtail, Giant [4, 19] | Foxtail, Giant plant response rating (0 to 100 scale, 0 is no effect, 100 is complete control) ([4]; Preemergence) | Plant response rating, Ryegrass, Italian [5, 19] | Ryegrass, Italian plant response rating (0 to 100 scale, 0 is no effect, 100 is complete control) ([5]; Preemergence) | Plant response rating, Pigweed [6, 19] | Pigweed plant response rating (0 to 100 scale, 0 is no effect, 100 is complete control) ([6]; Preemergence) | Barnyardgrass plant response rating ([7]; postemergence) | Plant response rating, Barnyardgrass [7, 20] | Plant response rating, Kochia (Kochia (Kochia scoparia) [8]; [21]) | Plant response rating, Kochia (Kochia (Kochia scoparia) [8]; [22]) | Plant response rating, Galium [9, 21] | Plant response rating, Galium [9, 22] | Plant response rating, Ragweed [10, 21] | Plant response rating, Ragweed [10, 22] | Blackgrass plant response rating ([11]; postemergence) | Plant response rating, Blackgrass [11, 20] | Plant response rating, Foxtail, Giant [12, 21] | Plant response rating, Foxtail, Giant [12, 22] | Plant response rating, Corn (corn (Zea mays); [21]) | Plant response rating, Corn (corn (Zea mays); [22]) | Plant response rating, Wheat [13, 21] | Plant response rating, Wheat [13, 22] | Plant response rating, Ryegrass, Italian [14, 21] | Plant response rating, Ryegrass, Italian [14, 22] | Plant response rating, Pigweed [15, 21] | Plant response rating, Pigweed [15, 22] | Plant response rating, Barnyardgrass ([16]; 500 g ai/ha) | Plant response rating, Sedge, Umbrella ([17]; 500 g ai/ha) | Plant response rating, Rice (rice (Oryra sativa); 500 g ai/ha) | Plant response rating, Ducksalad ([18]; 500 g ai/ha)

CN1CC(c2ccc(C(F)(F)F)c(F)c2)C(C(=O)Nc2ccc(F)cc2F)C1=O (stereo not drawn) [Compound 398]
30: Ragweed plant response rating (0 to 100 scale, 0 is no effect, 100 is complete control) ([3]; Preemergence) | Plant response rating, Ryegrass, Italian [5, 23]
70: Plant response rating, Kochia (Kochia (Kochia scoparia) [2]; [23]) | Ryegrass, Italian plant response rating (0 to 100 scale, 0 is no effect, 100 is complete control) ([5]; Preemergence) | Plant response rating, Pigweed [6, 23] | Plant response rating, Corn (corn (Zea mays); [25]) | Plant response rating, Wheat [13, 25]
20: Plant response rating, Ragweed [3, 23] | Wheat plant response rating ([13]; 125 g ai/ha, postemergence) | Ryegrass, Italian plant response rating ([14]; 125 g ai/ha, postemergence) | Plant response rating, Rice (rice (Oryra sativa); 250 g ai/ha)
90: Plant response rating, Barnyardgrass [1, 23] | Barnyardgrass plant response rating (0 to 100 scale, 0 is no effect, 100 is complete control) ([1]; Preemergence) | Kochia plant response rating (0 to 100 scale, 0 is no effect, 100 is complete control) (Kochia (Kochia scoparia) [2]; Preemergence) | Plant response rating, Foxtail, Giant [4, 23] | Foxtail, Giant plant response rating (0 to 100 scale, 0 is no effect, 100 is complete control) ([4]; Preemergence) | Pigweed plant response rating (0 to 100 scale, 0 is no effect, 100 is complete control) ([6]; Preemergence) | Barnyardgrass plant response rating ([7]; postemergence) | Plant response rating, Barnyardgrass [7, 24] | Plant response rating, Foxtail, Giant [12, 25]
0: Ragweed plant response rating ([10]; 125 g ai/ha, postemergence) | Plant response rating, Ragweed [10, 25] | Plant response rating, Sedge, Umbrella ([17]; 250 g ai/ha)
50: Galium plant response rating ([9]; 125 g ai/ha, postemergence) | Plant response rating, Ryegrass, Italian [14, 25] | Pigweed plant response rating ([15]; 125 g ai/ha, postemergence)
60: Kochia plant response rating (Kochia (Kochia scoparia) [8]; 125 g ai/ha, postemergence) | Plant response rating, Galium [9, 25] | Plant response rating, Blackgrass [11, 24] | Corn plant response rating (corn (Zea mays); 125 g ai/ha, postemergence) | Plant response rating, Pigweed [15, 25] | Plant response rating, Barnyardgrass ([16]; 250 g ai/ha)
80: Plant response rating, Kochia (Kochia (Kochia scoparia) [8]; [25]) | Foxtail, Giant plant response rating ([12]; 125 g ai/ha, postemergence) | Plant response rating, Ducksalad ([18]; 250 g ai/ha)
40: Blackgrass plant response rating ([11]; postemergence)

O=C(Nc1cccc(F)c1F)C1C(=O)N(CC=CCl)CC1c1cccc(C(F)(F)F)c1 (stereo not drawn) [Compound 485]
40: Plant response rating, Pigweed [15, 22] | Plant response rating, Ducksalad ([18]; 250 g ai/ha)
70: Plant response rating, Foxtail, Giant [4, 19] | Plant response rating, Foxtail, Giant [12, 22]
50: Plant response rating, Barnyardgrass [7, 20]
0: Plant response rating, Kochia (Kochia (Kochia scoparia) [2]; [19]) | Kochia plant response rating (0 to 100 scale, 0 is no effect, 100 is complete control) (Kochia (Kochia scoparia) [2]; Preemergence) | Plant response rating, Ragweed [3, 19] | Ragweed plant response rating (0 to 100 scale, 0 is no effect, 100 is complete control) ([3]; Preemergence) | Plant response rating, Ryegrass, Italian [5, 19] | Ryegrass, Italian plant response rating (0 to 100 scale, 0 is no effect, 100 is complete control) ([5]; Preemergence) | Plant response rating, Pigweed [6, 19] | Pigweed plant response rating (0 to 100 scale, 0 is no effect, 100 is complete control) ([6]; Preemergence) | Kochia plant response rating (Kochia (Kochia scoparia) [8]; 125 g ai/ha, postemergence) | Galium plant response rating ([9]; 125 g ai/ha, postemergence) | Ragweed plant response rating ([10]; 125 g ai/ha, postemergence) | Plant response rating, Ragweed [10, 22] | Blackgrass plant response rating ([11]; postemergence) | Plant response rating, Blackgrass [11, 20] | Corn plant response rating (corn (Zea mays); 125 g ai/ha, postemergence) | Wheat plant response rating ([13]; 125 g ai/ha, postemergence) | Ryegrass, Italian plant response rating ([14]; 125 g ai/ha, postemergence) | Plant response rating, Ryegrass, Italian [14, 22] | Pigweed plant response rating ([15]; 125 g ai/ha, postemergence) | Plant response rating, Barnyardgrass ([16]; 250 g ai/ha) | Plant response rating, Sedge, Umbrella ([17]; 250 g ai/ha) | Plant response rating, Rice (rice (Oryra sativa); 250 g ai/ha)
20: Barnyardgrass plant response rating ([7]; postemergence) | Foxtail, Giant plant response rating ([12]; 125 g ai/ha, postemergence) | Plant response rating, Corn (corn (Zea mays); [22]) | Plant response rating, Wheat [13, 22]
90: Foxtail, Giant plant response rating (0 to 100 scale, 0 is no effect, 100 is complete control) ([4]; Preemergence)
30: Plant response rating, Barnyardgrass [1, 19] | Plant response rating, Kochia (Kochia (Kochia scoparia) [8]; [22]) | Plant response rating, Galium [9, 22]
80: Barnyardgrass plant response rating (0 to 100 scale, 0 is no effect, 100 is complete control) ([1]; Preemergence)

From patent US12077503B2, “Substituted cyclic amides and their use as herbicides” (FMC CORPORATION, priority 2015, dated 2024)
